This assay has as its system TNF-α expression in canine DH82 cells. As to the kind of experiment: Effect of PPARγ agonist on TNF-α mRNA levels (Q-PCR) in canine DH82 cells. It is filed as cell-based. To be noted: two hours, normalized to GAPDH. The procedure:
Canine DH82 cells (ATCC No. CRL-10389) were cultured in RPMI 1640 medium containing 2 mM L-glutamine, 25 mM Hepes, 10% fetal bovine serum (FBS) and 1× antimycotic at 37° C., 95% humidity, and 5% CO2. Cells were treated with 10 nM PMA (Sigma-Aldrich, St. Louis, Mo.), PMA (10 nM) plus darglitazone (10 uM), and darglitazone (10 μM), respectively for two hours. After treatment, cell RNA lysis buffer was added to the cells. Samples were loaded into MagNa Pure™ machine (F. Hoffmann-La Roche, Basel, Switzerland). MagNa Pure LC™ RNA isolation Kit II (F. Hoffmann-La Roche) was used for isolation of total RNA from culture cells. First strand cDNA synthesis kit for RT-PCR (F. Hoffmann-La Roche) was used to synthesize cDNA. Samples were incubated at 25° C. for 10 minutes and then at 42° C. for 60 minutes, denatured at 90° C. for 5 minutes and cooled to 4° C. for 1-2 hr or at −20° C. for longer periods. Quantification PCR (Q-PCR) was performed using the Lightcycler Faster DNA Master SYBR Green 1™ kit (F. Hoffmann-La Roche) using canine TNF-α primers (forward primer: 5′ […], reverse primer: 5′ […]). […] For quantification, melting points were measured every 0.2° C. from 60° C. to 99° C. using fluorescence detection. […]

In the case of `Cc1oc(-c2ccccc2)nc1CCC(=O)c1ccc(CC2SC(=O)NC2=O)cc1` (centres unmarked) [darglitazone], the “reduction of TNF-α expression in PMA stimulated cells” value (PMA 10 nM plus darglitazone 10 uM, FIG. 2B) was “about 15%”. In addition, the “reduction of TNF-α expression from the basal level” value (unstimulated, darglitazone 10 μM, control basal level = 100%, FIG. 2A) is reported as “about 40%”.
